Laboratory results taken from patent US5041581A (priority 1986, dated 1991).

Assays:
[1] = Encapsulation efficiency of platinum complexes in multilamellar liposomes (UV spectrophotometry / x-ray fluorescence); assay type: physicochemical; conditions: for Encapsulation Efficiency: lipophilic cisplatin analogues incorporated in liposomes (Table 12); for % Encapsulation Efficiency: liposomes DMPC:DMPG 7:3, mean of at least three experiments
Experimental: Multilamellar lipid vesicles (MLV) or liposomes containing incorporated platinum complexes (PT) of the above descriptions were prepared as previously described for other compounds (Lopez-Berestein et al (4)(1984) Clin. Exp. Metastasis V 2 pp 127-137 and Lopez-Berestein et al (1983) J Inf Dis V 147 pp 937-945). In brief, chloroform solutions of lipids (at the desired molar ratio) and PT were mixed at a lipid-PT ratio of 15:1 and the chloroform was evaporated in a rotary evaporator (Buchi, Brinkmann Instruments, Westbury, NY). The dried lipid film obtained, containing PT, was then dispersed with an aqueous solution (0.9% NaCl in water) by vigorous handshaking. The suspension was subsequently centrifuged at 30,000 ×g for 45 minutes, the supernatant was discarded, and the pellet containing PT was resuspended in 0.9% NaCl solution.
Elemental platinum (Pt) was determined in the liposome suspension and the pellet by x-ray fluorescence as previously reported (Seifert et al (1979) Proc. Amer. Ass'n. Cancer Res. V 20 p. 168) in the Department of Analytical Chemistry, The University of Texas Medical School at Houston, TX. The amount of platinum complex (PT) was determined in the supernatant by ultraviolet (UV) spectrophotometry using a wavelength of 224 nm. The EE was initially calculated with the two following formulas:
1. EE =Pt in pellet/total Pt in the initial liposome suspension
2. EE =Total Pt initially added - Pt in supernatant/total Pt initially added
The encapsulation efficiency for Pt-cyclopentenecarboxylato racemic-DACH was 66%. […] The encapsulation efficiency for Pt-neodecanoato-racemic-DACH, Pt-neodecanoatotrans-RR-DACH, Pt-n-decyliminodiacetato racemic DACH complexes are presented in Table I, shown below.
The compounds prepared in Examples 14-19 were tested for their efficiency of encapulation in liposomes by the methods described in Example 6. These liposome-encapsulated compounds were tested to determine their optimal dose and effectiveness as inhibitors of in vivo tumor growth as described in Example 12. The data in Table 12 reveal the resultant measurements.

[2] = test system: L1210 mouse leukemia; assay: In vivo antitumor activity against L1210 mouse leukemia (L1210-BDF1 mouse model); set-up: species or system BDF1 mice; conditions: for Optimal dose: L1210 ip/ip, single dose
Experimental: BDF1 mice were purchased from Charles River (Wilmington, MA). Groups of 6-8 mice weighing 18-22 gm were inoculated ip with 1×10^6 L1210 leukemia cells on day 0. L1210 cells were kept in DBA2 mice were weekly passages between the different experiments. All L-PT preparations were injected ip in volumes of 0.1 to 0.3 ml 24 hours after tumor inoculation. Two different schedules of administration were used: a single injection on day 1 or an injection on days 1, 5 and 9 (multiple). […] Clinical behavior and survival times were monitored until all animals had died. Results were expressed as % T/C (median survival time of treated mice/median survival time of control mice ×100) and number of long-term survivors. Mice living more than 30 days and more than 60 days were considered to be long-term survivors for the single and multiple injection schedule respectively. All L-PT preparations tested for antitumor activity were prepared under sterile conditions on the same day of the experiment.
The antitumor activity against L-1210 murine leukemia of the different L-PT analogs was assessed in an L-1210-BDF, mouse model (tumor inoculation day 0, treatment day 1, ip) as described earlier herein.
These liposome-encapsulated compounds were tested to determine their optimal dose and effectiveness as inhibitors of in vivo tumor growth as described in Example 12.

[3] = Stability of L-PT in 0.9% saline at 4° C. for 14 days; assay type: physicochemical; conditions: for Stability % (PT remaining in the liposomes): 0.9% saline, 4° C., DMPC:DMPG 7:3; for stability compared with Pt cyclopentenecarboxylato-racemic-DACH, in words: saline
Experimental: The stability of the different liposome-PT (L-PT) preparations in 0.9% NaCl solution at 4° C., and 50% human (AB) serum in 0.9% NaCl solution at 37° C. was determined using the following formula: [formula]
The EE values used in the stability determinations were obtained by measuring PT in the supernatants by UV spectrophotometry (0.9% NaCl solution) or x-ray fluorescence (50% human AB serum). The stability in 0.9% NaCl solution was determined up to 14 days after the initial preparation. In addition, the L-PT preparations were observed microscopically on day 14 to check the morphology of the vesicles. The stability in 50% human AB serum was determined up to 18 hours after incubation.
Preparations were suspended in 0.9% saline and incubated at 4° C. for 14 days. The liposome compositions were observed by light microscopy and the amount of free PT in the saline determined. […] Free PT was determined and stability was calculated as the percentage PT remaining in the liposomes.

[4] = Solubility in organic solvents and water; assay type: physicochemical; conditions: for solubility in methanol and chloroform, in words: chloroform (and other organic solvents where stated)
[5] = Acute toxicity (LD10, LD50, LD90) in CD-1 Swiss mice; assay type: in vivo
Experimental: Toxicology studies were carried out in 6-8 weeks old CD-1 Swiss mice weighing 22-25 gm and purchased from The University of Texas Science Park (Bastrop, TX). Free PT in suspension in hydroxypropylcellulose, DMPG, DMPG-PT, DMPC:DMPG 7:3 and DMPC:DMPG 7:3-PT were administered intraperitoneally (ip) in volumes ranging between 0.1 and 0.3 ml. DMPC:DMPG 7:3-PT was also administered intravenously (iv) in one single injection or in 3 daily injections. The clinical behavior and the survival times were monitored on a daily basis.

[6] = Nephrotoxicity: blood urea nitrogen (BUN) 96 hours after ip LD50 dose; assay type: in vivo, CD1 Swiss mice; conditions: for BUN at 96 hours: ip single injection at LD50 dose
Experimental: All L-PT preparations tested for toxicity were prepared under sterile conditions on the same day of the experiments.

[7] = test system: L1210 cells; assay: In vitro growth inhibition of L1210 leukemic cells (96 hours, Coulter Counter); assay type: cell-based, murine; conditions: Exp. 1; 5760 min
Experimental: Four ml of cell suspension were added to culture tubes and the appropriate concentration of free PT or L-PT was added (from 0.01 micro g/ml to 10 micro g/ml final concentration). After 96 hours, the cell concentration of control and experimental cultures were calculated with a Coulter Counter (Coulter Electronics, Hialeah, FLA) and the percent inhibition calculated. The following preparations were tested: free PT, DMPG, DMPC:DMPG 7:3, DMPG-PT and DMPC:DMPG 7:3-PT.

[8] = L1210 ip/ip single dose at the optimal dose, incorporated in liposomes (Table 12)
[9] = incorporated in liposomes (Table 12)
[10] = 25 mg/kg ip day 1, liposomes DMPC:DMPG 7:3 (Table 8)

Row | Compound | Encapsulation Efficiency [1] [%] | % T/C [2, 8] [%] | Optimal dose [2, 9] [mg/kg] | Stability % (PT remaining in the liposomes) [3] [%] | % T/C [2, 10] [%] | solubility in methanol and chloroform, in words [4] | solubility in water, in words [4] | further results
1 | Cis-bis-neodecanoato-trans-R,R-1,2-diaminocyclohexane-platinum | 93 | 170 | 25 |  |  |  |  | 
2 | CCCCCCCCCC(=O)[O][Pt]1([O]C(=O)CCCCCCCCC)[NH][C@@H]2CCCC[C@H]2[NH]1 [cis-bis-decanoato-trans-R,R-1,2-diaminocyclohexane-platinum II] |  | 187 | 50 |  |  |  |  | 
3 | cis-bis-neodecanoato-ethylenediamine-platinum(II) |  | 144 | 75 |  |  |  |  | 
4 | CCCCCCCCCCN1CC(=O)[O][Pt]2([NH][C@@H]3CCCC[C@H]3[NH]2)[O]C(=O)C1 [Pt-N-decyliminodiacetato-trans-RR-DACH, cis-bis-n-decyliminodiacetato-trans-RR-DACH-Pt (II)] |  |  |  | 100 | 162 |  |  | 
5 | O=C([O][Pt]1([O]C(=O)C2=CCCC2)[NH][C@@H]2CCCC[C@H]2[NH]1)C1=CCCC1 [Pt-cyclopentenecarboxylato trans-RR-DACH, cis-bis-cyclopentenecarboxylato-1,2-trans-RR-DACH-Pt (II)-3H2 O] |  |  |  | 94 | 187 |  |  | stability compared with Pt cyclopentenecarboxylato-racemic-DACH, in words [3]: greater stability
6 | cis-bis-neodecanoato-bis-diamine-platinum (II) | 95 | 200 | 50 |  |  | highly soluble | insoluble | 
7 | cis-bis-neodecanoato-bis-cyclohexylamine-platinum (II) | 89 | 125 | 100 |  |  | highly soluble | insoluble | 
8 | O=C([O][Pt]1([O]C(=O)C2=CCCC2)[NH]C2CCCCC2[NH]1)C1=CCCC1 (mixture of isomers) [Pt-cyclopentenecarboxylato racemic-DACH mixture, cis-bis-cyclopentenecarboxylato-1,2-DACH-platinum (II)] |  |  |  | 89 | 213 |  |  | LD50 Dose ([5]; ip single injection (Table 4, CD1 mice), 20160 min): 91 mg/kg; LD10 ([5]; ip × 1): 61 mg/kg; LD90 ([5]; ip × 1): 125 mg/kg; LD50 ([5]; ip × 1, 20160 min): 91 mg/kg; BUN at 96 hours ([6]; listed as Free PT): 34.4 ± 9.6 mg %; BUN at 96 hours ([6]; listed as PT in suspension in hydroxypropylcellulose): 34.4±9.6 mg %; BUN elevation, in words ([6]; ip, LD50 dose, 96 hours): no significant BUN elevations; ID50 [7]: 1.3 micro g/ml; % T/C ([2]; 6.25 mg/kg × 3 ip, days 1, 5 and 9): 168%; % T/C, mean ([2]; 12.5 mg/kg and 25 mg/kg, single ip dose, means of three experiments): 162%; % T/C ([2]; 12.5 mg/kg ip day 1, Exp. 1): 173%; % T/C ([2]; 12.5 mg/kg ip day 1, Exp. 2): 136%; % T/C ([2]; 12.5 mg/kg ip day 1, Exp. 3): 179%; % T/C ([2]; 12.5 mg/kg × 3 ip, days 1, 5 and 9): 284%; % T/C ([2]; 25 mg/kg ip day 1, Exp. 3): 168%; % T/C ([2]; 25 mg/kg × 3 ip, days 1, 5 and 9): 158%
9 | cis-bis-neodecanoato-RR-DACH-Platinum (II) [Pt-neodecanoato-trans-RR-DACH] |  |  |  | 99 | 175 |  |  | % Encapsulation Efficiency [1]: 99%
10 | cis-bis-neodecanoato-bis-isopropylamine-platinum (II) | 87 | 150 | 100 |  |  | highly soluble | insoluble | 
11 | CCCCCCCCCCN1CC(=O)[O][Pt]2([NH]C3CCCCC3[NH]2)[O]C(=O)C1 (mixture of isomers) [Pt-N-decyliminodiaceto-racemic-DACH mixture, cis-bis-n-decyliminodiaceto-DACH-platinum (II)] |  |  |  | 100 | 150 |  |  | 
12 | cis-bis-neodecanoatoDACH-platinum II [Pt-neodecanoato-racemic DACH-mixture] |  |  |  | 100 |  | highly soluble | insoluble | % Encapsulation Efficiency [1]: 99%; stability compared with Pt cyclopentenecarboxylato-racemic-DACH, in words [3]: greater stability; % T/C ([2]; 50 mg/kg ip day 1, liposomes DMPC:DMPG 7:3 (Table 8)): 187%
13 | O=C([O][Pt]1([O]C(=O)C2=CCCC2)[NH][C@H]2CCCC[C@@H]2[NH]1)C1=CCCC1 [Pt-cyclopentenecarboxylato trans-SS-DACH] |  |  |  |  | 155 |  |  | 
